Measured values as given in patent US9546153B2, “Bicyclic heterocycle substituted pyridyl compounds useful as kinase modulators” (BRISTOL-MYERS SQUIBB COMPANY, priority 2012, dated 2017).
Like-named read-outs stand apart in the source and are kept apart here.

Experiments:
[1] = system: TLR2 induced IL-6 in peripheral blood mononuclear cells (PBMCs); test: PBMC TLR2 Induced IL-6 Assay; assay type: cell-based, human; details: human PBMCs, 10 μg/ml lipoteichoic acid for 5 hours, IL-6 by ELISA; for IC50: value without asterisk, read-out: Cell IC50; for EC50: EC50 determinations are indicated with an asterisk, read-out: Cell EC50 (asterisk)
How it was run: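 IL-6 ELISA of supernatants after a 5 h challenge with the TLR2 agonist lipoteichoic acid (10 μg/ml). Before stimulation, human PBMCs (250000 cells/well; RPMI, 10% heat-inactivated FCS) received compound for 30 min at 37° C. Values given as IC50 or EC50.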

IRAK4 = IRAK4 (Homo sapiens (Human), UniProt Q9NWZ3); test: IRAK4 Inhibition Assay; assay type: biochemical; details: ATP 500 μM; IRAK4 0.6 nM; 60 min at room temperature
Chain of IRAK4 (Q9NWZ3 whole entry, species assumed): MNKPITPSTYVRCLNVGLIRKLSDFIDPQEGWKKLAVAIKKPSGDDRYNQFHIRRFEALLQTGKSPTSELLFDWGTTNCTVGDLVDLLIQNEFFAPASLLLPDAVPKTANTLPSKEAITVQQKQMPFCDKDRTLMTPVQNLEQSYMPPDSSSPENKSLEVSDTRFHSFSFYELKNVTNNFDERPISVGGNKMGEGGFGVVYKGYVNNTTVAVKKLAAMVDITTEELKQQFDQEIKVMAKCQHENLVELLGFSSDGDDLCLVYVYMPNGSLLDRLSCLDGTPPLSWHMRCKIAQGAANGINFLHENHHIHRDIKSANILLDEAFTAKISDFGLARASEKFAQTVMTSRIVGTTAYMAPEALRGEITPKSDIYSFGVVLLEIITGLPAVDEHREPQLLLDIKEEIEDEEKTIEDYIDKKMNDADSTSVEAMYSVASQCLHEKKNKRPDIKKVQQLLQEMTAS
Description: The assays were performed in U-bottom 384-well plates. […] The reaction was initiated by the combination of IRAK4 with substrates and test compounds. The reaction was incubated at room temperature for 60 min. and terminated by adding 45 μL of 35 mM EDTA to each sample. The reaction mixture was analyzed on the Caliper LABCHIP® 3000 (Caliper, Hopkinton, Mass.) by electrophoretic separation of the fluorescent substrate and phosphorylated product.

SMILES | IC50 [1] [nM] | IC50 (IRAK4) [nM] | IC50 ([1]; Homo sapiens, PBMC, 5 h) [nM] | EC50 ([1]; Homo sapiens, PBMC, 5 h) [nM] | EC50 [1] [nM]
CC(CO)Nc1cc(Nc2nc3scnc3cc2F)ncc1C(=O)NC[C@@H](F)C(C)(C)O (stereo partly drawn) [Example 459] | 141 | 3.4 | – | – | –
CC(CO)Nc1cc(Nc2nc3scnc3cc2F)ncc1C(=O)NC[C@@H](F)C(C)(C)O (stereo partly drawn) [Example 460] | 553 | 3.3 | – | – | –
CC(C)(O)[C@H](F)CNC(=O)c1cnc(Nc2nc3scnc3cc2F)cc1NC1CCCC1F (stereo partly drawn) [Example 461] | – | 2 | 147 | – | –
CC(C)(O)[C@H](F)CNC(=O)c1cnc(Nc2nc3scnc3cc2F)cc1NC1CCCC1F (stereo partly drawn) [Example 462] | 115 | 1.7 | – | – | –
CC(C)(O)[C@H](F)CNC(=O)c1cnc(Nc2nc3scnc3cc2F)cc1NC1CC1 [Example 467] | – | 2 | 428 | – | –
CCNc1cc(Nc2nc3scnc3cc2F)ncc1C(=O)NC[C@@H](F)C(C)(C)O [Example 468] | – | 4.1 | 246 | – | –
CC(C)(O)[C@H](F)CNC(=O)c1cnc(Nc2nc3scnc3cc2F)cc1NC1CCOCC1F (stereo partly drawn) [Example 469] | – | 3.1 | 476 | – | –
CC(C)(O)[C@H](F)CNC(=O)c1cnc(Nc2nc3scnc3cc2F)cc1NC1CCOCC1F (stereo partly drawn) [Example 470] | 635 | 3.6 | – | – | –
CC(C)(O)[C@H](F)CNC(=O)c1cnc(Nc2nc3scnc3cc2F)cc1NC1CCCOC1 (stereo partly drawn) [Example 473] | – | 1.5 | 401 | – | –
CC(C)(O)[C@H](F)CNC(=O)c1cnc(Nc2nc3scnc3cc2F)cc1NC1CCCOC1 (stereo partly drawn) [Example 474] | 204 | 2.8 | – | – | –
CC(C)Nc1cc(Nc2cc3ccnn3cc2F)ncc1C(=O)NC[C@@H](F)C(C)(C)O [Example 477] | – | 10 | 717 | – | –
CC(C)(O)[C@H](F)CNC(=O)c1cnc(Nc2nc3ccnn3cc2F)cc1NC1CCC(F)C1 (stereo partly drawn) [Example 478] | 50 | 2.2 | – | – | –
CC(C)(O)[C@H](F)CNC(=O)c1cnc(Nc2nc3ccnn3cc2F)cc1NC1CCCCC1F (stereo partly drawn) [Example 479] | – | 4.3 | 473 | – | –
CC(C)Nc1cc(Nc2ccc3cc(C#N)ccc3n2)ncc1C(=O)NC[C@@H](F)C(C)(C)O [Example 480] | – | 8.4 | – | 877 | –
CC(C)(O)[C@H](F)CNC(=O)c1cnc(Nc2nc3ccnn3cc2F)cc1NC1CC2CC2C1(F)F (stereo partly drawn) [Example 481] | – | 3.6 | 223 | – | –
Cc1cn2nccc2nc1Nc1cc(NC2CCOCC2)c(C(=O)NC[C@@H](F)C(C)(C)O)cn1 [Example 482] | – | 10.3 | – | 251 | –
CC(C)Nc1cc(Nc2nc3scnc3cc2F)ncc1C(=O)NCC(F)(F)C(C)(C)O [Example 483] | – | 3.4 | 463 | – | –
C[C@@H](CO)Nc1cc(Nc2nc3scnc3cc2F)ncc1C(=O)N[C@H]1CC[C@H](O)CC1 [Example 484] | – | 8.7 | 1350 | – | –
Cc1cn2nccc2cc1Nc1cc(NC(C)C)c(C(=O)NC[C@@H](F)C(C)(C)O)cn1 [Example 487] | – | 8.1 | – | 632 | –
CC(C)(F)CNc1cc(Nc2ncc3ncsc3c2F)ncc1C(=O)NC1CCC(C(C)(C)O)CC1 (stereo not drawn) [Example 489] | – | 8.2 | – | 374 | –
CC(C)(O)C1CCC(NC(=O)c2cnc(Nc3ccc4ncsc4c3)cc2NC2CCCOC2)CC1 (stereo not drawn) [Example 490] | – | 4.2 | – | 277 | –
CC(C)(O)C1CCC(NC(=O)c2cnc(Nc3ccc4ncsc4c3)cc2NC2CCCOC2)CC1 (stereo not drawn) [Example 491] | – | 5 | – | – | 281
CCNc1cc(Nc2nc3ccnn3cc2F)ncc1C(=O)NC1CCC(C(C)(C)O)CC1 (stereo not drawn) [Example 492] | – | 12.1 | – | 454 | –
CC(C)(O)C(F)(F)CNC(=O)c1cnc(Nc2nc3scnc3cc2F)cc1NC1CC1 [Example 493] | – | 4.3 | – | 365 | –

SMILES | IC50 [1] [nM] | IC50 (IRAK4) [nM] | IC50 ([1]; Homo sapiens, PBMC, 5 h) [nM] | EC50 ([1]; Homo sapiens, PBMC, 5 h) [nM] | EC50 [1] [nM]
CC(C)Nc1cc(Nc2ccc3ncsc3c2)ncc1C(=O)NC1CCc2[nH]ncc2C1 (stereo not drawn) [Example 494] | – | 8.5 | – | 209 | –
CC(C)(O)[C@H](F)CNC(=O)c1cnc(Nc2ncc3ccc(F)cc3n2)cc1NC1CCOCC1 [Example 495] | – | 11.9 | – | 447 | –
CC(C)(O)[C@H](F)CNC(=O)c1cnc(Nc2nc3ccnn3cc2F)cc1NC1CCCCC1(F)F (stereo partly drawn) [Example 496] | – | 6.4 | – | – | 91
CC(C)(O)[C@H](F)CNC(=O)c1cnc(Nc2nc3ccnn3cc2F)cc1NC1CCCCC1(F)F (stereo partly drawn) [Example 497] | – | 15.2 | – | – | 299
CC(C)(O)[C@H](F)CNC(=O)c1cnc(Nc2cc3nccnc3cc2F)cc1NC1CCC1 [Example 500] | – | 5.4 | – | 228 | –
CC(C)Nc1cc(Nc2cc3nccnc3cc2F)ncc1C(=O)NC[C@@H](F)C(C)(C)O [Example 501] | – | 4.5 | – | 209 | –
CC(CCF)Nc1cc(Nc2nc3ccnn3cc2F)ncc1C(=O)NC[C@@H](F)C(C)(C)O (stereo partly drawn) [Example 502] | – | 4.8 | – | 144 | –
CNC(=O)[C@H]1CC[C@H](NC(=O)c2cnc(Nc3ccc4ncsc4c3)cc2NC2CCC2)CC1 [Example 504] | – | 4.7 | 496 | – | –
CNC(=O)[C@H]1CC[C@H](NC(=O)c2cnc(Nc3ccc4ncsc4c3)cc2NCC(F)(F)F)CC1 [Example 506] | – | 6.5 | 320 | – | –
CNC(=O)[C@H]1CC[C@H](NC(=O)c2cnc(Nc3cnc4[nH]ccc4c3)cc2NC(C)C)CC1 [Example 507] | – | 12 | 523 | – | –
CNC(=O)[C@H]1CC[C@H](NC(=O)c2cnc(Nc3nc4ccnn4cc3F)cc2NC2CC2)CC1 [Example 508] | – | 10.2 | 10000 | – | –
CNC(=O)[C@H]1CC[C@H](NC(=O)c2cnc(Nc3nc4ccnn4cc3F)cc2NC2CCOCC2)CC1 [Example 509] | – | 9.5 | 1200 | – | –
CNC(=O)[C@H]1CC[C@H](NC(=O)c2cnc(Nc3ccc4ncsc4n3)cc2NC2CCOCC2)CC1 [Example 510] | – | 1.5 | – | 28 | –
CC(=O)N[C@H]1CC[C@H](NC(=O)c2cnc(Nc3ccc4ncsc4c3)cc2N[C@H]2CCOC[C@@H]2F)CC1 [Example 511] | – | 4.2 | 611 | – | –
CC(=O)N[C@H]1CC[C@H](NC(=O)c2cnc(Nc3nc4ccnn4cc3F)cc2NC(C)C)CC1 [Example 512] | – | 17.4 | 602 | – | –
CC(=O)N[C@H]1CC[C@H](NC(=O)c2cnc(Nc3nc4ccnn4cc3F)cc2NC2CCOCC2)CC1 [Example 513] | – | 9.4 | 1570 | – | –
CC(=O)N[C@H]1CC[C@H](NC(=O)c2cnc(Nc3ccc4ncsc4n3)cc2NC2CCOCC2)CC1 [Example 514] | – | 1.8 | – | 26 | –
CC(C)(O)[C@H](F)CNC(=O)c1cnc(Nc2cc3scnc3cc2F)cc1NCC(F)(F)F [Example 515] | – | 3.4 | 450 | – | –
CCNc1cc(Nc2cc3scnc3cc2F)ncc1C(=O)NC[C@@H](F)C(C)(C)O [Example 516] | – | 3.1 | 1200 | – | –
CC(C)(O)[C@H](F)CNC(=O)c1cnc(Nc2cc3scnc3cc2F)cc1NC1CCCOC1 (stereo partly drawn) [Example 517] | – | 6 | 1290 | – | –
CC(C)(O)[C@H](F)CNC(=O)c1cnc(Nc2cc3scnc3cc2F)cc1NC1CCCOC1 (stereo partly drawn) [Example 518] | 1840 | 3.8 | – | – | –
CC(C)(O)[C@H](F)CNC(=O)c1cnc(Nc2nc3scnc3cc2F)cc1NCC(F)(F)F [Example 519] | – | 2.2 | 634 | – | –
CC(C)(O)[C@H](F)CNC(=O)c1cnc(Nc2cc3scnc3cc2F)cc1NC1CCOCC1 [Example 520] | – | 2.5 | 1060 | – | –
CC(C)Nc1cc(Nc2ccc3ncsc3c2)ncc1C(=O)NC1CCc2nc(N)sc2C1 (stereo not drawn) [Example 521] | – | 8.5 | 2330 | – | –
